From PubChem BioAssay (NCI)
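Step 1: Grow cells in 96-well plates. Step 2: Expose to compound for 48 hours at 5 concentrations. Step 3: Interpolate endpoints linearly; if unreached, use highest concentration. Here, GI50 denotes the concentration required for 50% inhibition of growth. At the TGI there is no net growth.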

What was measured:
Assay in all cases: inhibition of tumour cell growth, NCI panel, 48 h
786-0 renal = test system: 786-0 renal
CCRF-CEM leukemia = test system: CCRF-CEM leukemia
KM12 colon = test system: KM12 colon
NCI-H522 lung = test system: NCI-H522 lung
OVCAR-3 ovarian = test system: OVCAR-3 ovarian
SF-268 CNS = test system: SF-268 CNS
HCT-116 colon = test system: HCT-116 colon
MDA-MB-231 breast = test system: MDA-MB-231 breast
NCI-H226 lung = test system: NCI-H226 lung
HT29 colon = test system: HT29 colon

Row | Structure (SMILES) | TGI (786-0 renal) | TGI (CCRF-CEM leukemia) | TGI (KM12 colon) | TGI (NCI-H522 lung) | TGI (OVCAR-3 ovarian) | TGI (SF-268 CNS) | GI50 (786-0 renal) | GI50 (HCT-116 colon) | TGI (HCT-116 colon) | GI50 (KM12 colon) | GI50 (MDA-MB-231 breast) | TGI (MDA-MB-231 breast) | GI50 (NCI-H226 lung) | TGI (NCI-H226 lung) | GI50 (NCI-H522 lung) | GI50 (OVCAR-3 ovarian) | GI50 (SF-268 CNS) | GI50 (CCRF-CEM leukemia) | GI50 (HT29 colon) | TGI (HT29 colon)
1 | CN1CCN(c2nc(N)c(Br)c(Cl)n2)CC1 | > 100 µM | > 100 µM | > 100 µM | > 100 µM | > 100 µM | > 100 µM |  |  |  |  |  |  |  |  |  |  |  |  |  | 
2 | CSc1ccc(C(=O)/C=C/c2ccc(Cl)cc2Cl)cc1 | 36.2 µM |  | 51.8 µM | 37.2 µM | 49.2 µM | 48.9 µM | 16.9 µM | 3.91 µM | 14.9 µM | 22.2 µM | 27.7 µM | 86.9 µM | 26 µM | 82.9 µM | 14.4 µM | 21.9 µM | 20.8 µM |  |  | 
3 | CC(=O)CC(=O)Nc1ccccc1C(F)(F)F | > 100 µM | > 100 µM |  | > 100 µM |  | > 100 µM |  |  | > 100 µM |  |  |  |  | > 100 µM |  |  |  |  |  | 
4 | CC(=O)[CH-]C(=O)c1ccccc1.CC(=O)[CH-]C(=O)c1ccccc1.CC(=O)[CH-]C(=O)c1ccccc1.[Ga+3] | 37.1 µM | 35.7 µM | 31.1 µM | 25 µM | 48.9 µM | 26.9 µM | 18.2 µM | 15.5 µM | 29.8 µM | 16.8 µM |  |  | 16.8 µM | 43.5 µM | 12.1 µM | 20.4 µM | 11.6 µM | 4.39 µM | 20.7 µM | 39.1 µM
5 | Cc1ccc(Nc2nc(-c3ccc(-c4ccc([N+](=O)[O-])cc4)o3)cs2)cc1 | > 100 µM |  | > 100 µM |  | > 100 µM | > 100 µM |  |  | > 100 µM |  |  |  |  | > 100 µM |  |  |  |  |  | > 100 µM
6 | COc1ccc(C(=O)C(C(=O)C(=O)NCCCNC(=O)C(=O)C(C(=O)c2ccc(OC)cc2)c2ccc(OC)cc2)c2ccc(OC)cc2)cc1 (stereo not given) | > 100 µM | > 100 µM | > 100 µM | > 100 µM | > 100 µM | > 100 µM |  |  | > 100 µM |  |  |  |  | > 100 µM |  |  |  |  |  | > 100 µM
7 | Cc1cc(Br)ccc1N=Nc1c(C)nn(-c2ccccc2)c1-c1ccccc1 | > 100 µM | > 100 µM | > 100 µM | > 100 µM | > 100 µM | > 100 µM |  |  | > 100 µM |  |  |  |  |  |  |  |  |  |  | > 100 µM
8 | O=C(NC1=C(Cl)C(=O)c2ccccc2C1=O)C(=O)C(C(=O)c1ccc2ccccc2c1)C1OC(=O)c2ccccc21 (stereo not given) | 20.6 µM | 26.9 µM | 13.7 µM | 12.1 µM | 9.77 µM | 29.6 µM |  |  | 10.5 µM |  |  |  |  | 7.09 µM |  |  |  |  |  | 17.7 µM
9 | CCN(CC)c1ccc(C2N3CCCCC3[C@@H]3c4[nH]c5ccccc5c4CCN23)cc1 (stereo not given in full) | > 100 µM | 63.9 µM |  |  | 71.4 µM | 69 µM |  |  | 33.9 µM |  |  |  |  |  |  |  |  |  |  | 36.3 µM
10 | CN(C)N=Nc1ccc(S(N)(=O)=O)cc1 | > 100 µM | > 100 µM | > 100 µM | > 100 µM | > 100 µM | > 100 µM |  |  | > 100 µM |  |  |  |  | > 100 µM |  |  |  |  |  | > 100 µM
11 | COc1ccc(/C=C/c2ccnc3ccccc23)cc1OC | > 100 µM | 31 µM | 30.8 µM | 23.2 µM | 26.6 µM | 27.8 µM |  |  | 25.1 µM |  |  |  |  | 48.5 µM |  |  |  |  |  | 27.4 µM
12 | CC12CCc3ccccc3C1=NNC(=O)C2 (stereo not given) | > 100 µM | > 100 µM | > 100 µM | > 100 µM | > 100 µM | > 100 µM |  |  | > 100 µM |  |  |  |  | > 100 µM |  |  |  |  |  | > 100 µM
13 | CC1=C2C=CC(=O)C[C@@]2(C)CCC1 | > 100 µM | > 100 µM | > 100 µM | > 100 µM | > 100 µM | > 100 µM |  |  | > 100 µM |  |  |  |  |  |  |  |  |  |  | > 100 µM
14 | COc1cc(O)c(C(=O)/C=C/c2ccc(OC)c(OCc3ccccc3)c2)c(OC)c1 | > 100 µM | > 100 µM | > 100 µM | > 100 µM | > 100 µM |  |  |  | > 100 µM |  |  |  |  | > 100 µM |  |  |  |  |  | > 100 µM
15 | NC(=O)c1ncn(C2OC(CO)C(O)C2O)c1O (stereo not given) | > 100 µM | > 100 µM | > 100 µM |  | > 100 µM | > 100 µM |  |  | > 100 µM |  |  |  |  | > 100 µM |  |  |  |  |  | 46.5 µM
16 | CC(=O)OCC1OC(n2c(=S)n(-c3ccccc3)c(=O)c3cc(Br)ccc32)C(OC(C)=O)C1OC(C)=O (stereo not given) | > 100 µM |  | > 100 µM | > 100 µM | > 100 µM | > 100 µM |  |  | > 100 µM |  |  |  |  | > 100 µM |  |  |  |  |  | > 100 µM
17 | O=C(C(=CN1CCN(C(=O)c2ccco2)C1=S)C(=O)c1ccccc1)c1ccccc1 | 19.2 µM |  | 11.5 µM |  | 23 µM |  | 8.23 µM | 7.93 µM | 17 µM | 2.31 µM | 7.41 µM | 20.1 µM |  |  |  | 7.32 µM |  |  | 16.9 µM | > 50 µM
18 | O=C1[C@@H]2C(c3ccccc3[N+](=O)[O-])=NO[C@@H]2C(=O)N1c1ccc(Cc2ccc(N3C(=O)[C@H]4C(c5ccccc5[N+](=O)[O-])=NO[C@H]4C3=O)cc2)cc1 | > 100 µM | > 100 µM | > 100 µM | > 100 µM | > 100 µM | > 100 µM |  |  | > 100 µM |  |  |  |  |  |  |  |  |  |  | > 100 µM
19 | CCC(c1ccccc1)c1cc(C(C)(C)C)cc(C(C)(C)C)c1O (stereo not given) | 29 µM |  | 32.3 µM | 27.2 µM | 27.2 µM | 28.9 µM |  |  | 25.5 µM |  |  | 31.9 µM |  | 35.1 µM |  |  |  |  |  | 28 µM
20 | Cc1c(-c2ccccn2)ccc2ccccc12 | > 100 µM | > 100 µM | > 100 µM |  | > 100 µM | > 100 µM |  |  | > 100 µM |  |  | > 100 µM |  | > 100 µM |  |  |  |  |  | > 100 µM
21 | COC(=O)c1cc2cc(/C=C3/SC(=S)N(N(C(C)=O)C(C)=O)C3=O)oc2n1Cc1ccccc1 | 38.6 µM | > 100 µM | > 100 µM | 48.6 µM | 51 µM | > 100 µM | 21.1 µM |  |  | 27.8 µM | 20.6 µM | 50.4 µM | 21.9 µM | 45.2 µM | 19.1 µM | 19.5 µM | 48.2 µM | 32.3 µM | 37.4 µM | > 100 µM
